Assay results taken from patent publication US12630534B2 (TAKEDA PHARMACEUTICAL COMPANY LIMITED, priority 2020, dated 2026).

Molecular target: T1, human GPR139 (Homo sapiens, UniProt Q6DWJ6)
T1 construct: expressed in transfected cells; host or cells: CHO-TREx (Life Technologies) cells, expression induced with doxycycline
T1 sequence (Q6DWJ6 1-353): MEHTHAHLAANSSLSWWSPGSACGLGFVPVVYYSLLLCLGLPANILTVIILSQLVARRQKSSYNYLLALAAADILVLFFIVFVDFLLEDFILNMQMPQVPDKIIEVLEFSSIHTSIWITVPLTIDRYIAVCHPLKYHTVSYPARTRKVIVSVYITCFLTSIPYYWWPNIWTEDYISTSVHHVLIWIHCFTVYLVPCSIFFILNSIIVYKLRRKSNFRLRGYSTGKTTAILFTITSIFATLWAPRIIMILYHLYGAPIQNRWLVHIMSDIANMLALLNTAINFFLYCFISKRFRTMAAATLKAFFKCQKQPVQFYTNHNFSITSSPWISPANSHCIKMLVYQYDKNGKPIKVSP
Experiment: Inhibition rate of the amount of IP1 in GPR139-expressed CHO cells (inverse agonist assay, Test Example 2)
Assay type: cell-based
Conditions: relative value, inhibition rate of Example Compound 2 in Test Example 1 defined as 100%; for inhibition at 30 µM: CHO
In short: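 CHO-TREx cells with doxycycline-inducible human GPR139 (2 μg/mL, 17 h) were incubated with compound at 2000 cells/well for 40 min at 37° C. IP1 quantified by HTRF (665/615 nm ratio ×10000); inhibition rate expressed relative to a reference compound defined as […].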

| inhibition at 30 µM [%] | Inhibition Rate at 30 μM [%] | SMILES |
| --- | --- | --- |
| 99 |  | Cc1nn(-c2cc(N(C)C3CCOCC3)cc(C(F)(F)F)c2F)c(=O)n1Cc1cnn(C(C)C)c1 [Example 92, 2-{2-fluoro-5-[methyl(oxan-4-yl)amino]-3-(trifluoromethyl)phenyl}-5-methyl-4-{[1-(propan-2-yl)-1H-pyrazol-4-yl]methyl}-2,4-dihydro-3H-1,2,4-triazol-3-one] |
| 99 |  | Cc1nn(-c2cc(N3CCOC(C)(C)C3)cc(C(F)(F)F)c2F)c(=O)n1Cc1cnn(C(C)C)c1 [Example 93] |
| 99 |  | Cc1nn(-c2cc(N3CCC(F)(F)C3)cc(C(F)(F)F)c2F)c(=O)n1Cc1cnn(C(C)C)c1 [Example 94, 2-[5-(3,3-difluoropyrrolidin-1-yl)-2-fluoro-3-(trifluoromethyl)phenyl]-5-methyl-4-{[1-(propan-2-yl)-1H-pyrazol-4-yl]methyl}-2,4-dihydro-3H-1,2,4-triazol-3-one] |
| 100 |  | CCn1cc(Cn2c(C)nn(-c3cc(N(C)C4CCOCC4)cc(C(F)(F)F)c3F)c2=O)cn1 [Example 95, 4-[(1-ethyl-1H-pyrazol-4-yl)methyl]-2-{2-fluoro-5-[methyl(oxan-4-yl)amino]-3-(trifluoromethyl)phenyl}-5-methyl-2,4-dihydro-3H-1,2,4-triazol-3-one] |
| 101 |  | CCn1cc(Cn2c(C)nn(-c3cc(N4CCOC(C)(C)C4)cc(C(F)(F)F)c3F)c2=O)cn1 [Example 96, 2-[5-(2,2-dimethylmorpholin-4-yl)-2-fluoro-3-(trifluoromethyl)phenyl]-4-[(1-ethyl-1H-pyrazol-4-yl)methyl]-5-methyl-2,4-dihydro-3H-1,2,4-triazol-3-one] |
| 102 |  | CCn1cc(Cn2c(C)nn(-c3cc(N4CCC(F)(F)CC4)cc(C(F)(F)F)c3F)c2=O)cn1 [Example 97, 2-[5-(4,4-difluoropiperidin-1-yl)-2-fluoro-3-(trifluoromethyl)phenyl]-4-[(1-ethyl-1H-pyrazol-4-yl)methyl]-5-methyl-2,4-dihydro-3H-1,2,4-triazol-3-one] |
| 99 |  | Cc1cn(-c2cc(N3CCO[C@H](C)C3)cc(C(F)F)c2F)c(=O)n1Cc1cnn(C(C)C)c1 [Example 98, 1-{3-(difluoromethyl)-2-fluoro-5-[(2R)-2-methylmorpholin-4-yl]phenyl}-4-methyl-3-{[1-(propan-2-yl)-1H-pyrazol-4-yl]methyl}-1,3-dihydro-2H-imidazol-2-one] |
| 101 |  | CCn1cc(Cn2c(C)cn(-c3cc(C(F)(F)F)nn3CCC3CCC3)c2=O)cn1 [Example 99, 1-[1-(2-Cyclobutylethyl)-3-(trifluoromethyl)-1H-pyrazole-5-yl]-3-[(I-ethyl-1H-pyrazole-4-yl)methyl]-4-methyl-1,3<dihydro-2H-imidazole-2-one] |
| 99 |  | CCn1cc(Cn2c(C)c(C)n(-c3cc(OC[C@@H]4CCCO4)cc(C(F)(F)F)c3)c2=O)cn1 [Example 100] |
| 99 |  | Cc1cn(Cc2cnn(C(C)C)c2)c(=O)n1-c1cc(OC[C@@H]2CCCO2)cc(C(F)(F)F)c1 [Example 101, 4-methyl-3-[3-{[(2S)-oxolan-2-yl]methoxy}-5-(trifluoromethyl)phenyl]-1-{[1-(propan-2-yl)-1H-pyrazol-4-yl]methyl}-1,3-dihydro-2H-imidazol-2-one] |
| 105 |  | CC(C)n1cc(Cn2ccn(-c3cc(C(F)(F)F)cc(N4CCO[C@H](C)C4)n3)c2=O)cn1 [Example 102, 1-{6-[(2R)-2-methylmorpholin-4-yl]-4-(trifluoromethyl)pyridin-2-yl}-3-{[1-(propan-2-yl)-1H-pyrazol-4-yl]methyl}-1,3-dihydro-2H-imidazol-2-one] |
| 103 |  | Cc1cn(Cc2cnn(C(C)C)c2)c(=O)n1-c1cc(C(F)(F)F)cc(N2CCO[C@H](C)C2)n1 [Example 103, 4-Methy-3-{6-[(2R)-2-methylmorpholine-4-yl]-4-(trifluoromethyl)pyridine-2-yl}-1-{[1-(propane-2-yl)-1H-pyrazole-4-yl]methyl}-1,3-dihydro-2H-imidazole-2-one] |
| 104 |  | CCn1cc(Cn2cc(C)n(-c3cc(C4CC4)cc(N4CCO[C@H](C)C4)c3)c2=O)cn1 [Example 104, 3-{3-cyclopropyl-5-[(2R)-2-methylmorpholin-4-yl]phenyl}-1-[(1-ethyl-1H-pyrazol-4-yl)methyl]-4-methyl-1,3-dihydro-2H-imidazol-2-one] |
| 103 |  | CCn1cc(Cn2cc(C)n(-c3cc(OCC(F)(F)F)cc(N4CCO[C@H](C)C4)n3)c2=O)cn1 [Example 105, 1-[(1-ethyl-1H-pyrazol-4-yl)methyl]-4-methyl-3-{6-[(2R)-2-methylmorpholin-4-yl]-4-(2,2,2-trifluoroethoxy)pyridin-2-yl}-1,3-dihydro-2H-imidazol-2-one] |
| 102 |  | CCn1cc(Cn2cc(C)n(-c3cc(C(F)(F)F)cc(OCC4CCCO4)n3)c2=O)cn1 (stereo not drawn) [Example 106, 1-[(1-ethyl-1H-pyrazol-4-yl)methyl]-4-methyl-3-{6-[(oxolan-2-yl)methoxy]-4-(trifluoromethyl)pyridin-2-yl}-1,3-dihydro-2H-imidazol-2-one] |
| 104 |  | CCn1cc(Cn2cc(C)n(-c3cc(OC[C@@H]4CCCO4)cc(C(F)(F)F)c3F)c2=O)cn1 [Example 107, 1-[(1-ethyl-1H-pyrazol-4-yl)methyl]-3-[2-fluoro-5-{[(2S)-oxolan-2-yl]methoxy}-3-(trifluoromethyl)phenyl]-4-methyl-1,3-dihydro-2H-imidazol-2-one] |
|  | 102 | CCn1cc(Cn2cc(C)n(-c3cc(C(F)(F)F)cc(OCC4CCCO4)n3)c2=O)cn1 (stereo not drawn) [Example 108, 1-[(1-ethyl-1H-pyrazol-4-yl)methyl]-4-methyl-3-{6-[(oxolan-2-yl)methoxy]-4-(trifluoromethyl)pyridin-2-yl}-1,3-dihydro-2H-imidazol-2-one] |
|  | 101 | CCn1cc(Cn2cc(C)n(-c3cc(C(F)(F)F)cc(OCC4CCCO4)n3)c2=O)cn1 (stereo not drawn) [Example 109, 1-[(1-ethyl-1H-pyrazol-4-yl)methyl]-4-methyl-3-{6-[(oxolan-2-yl)methoxy]-4-(trifluoromethyl)pyridin-2-yl}-1,3-dihydro-2H-imidazol-2-one] |
| 101 |  | CCn1cc(Cn2cc(C)n(-c3cc(C(F)(F)F)cc(NCC4(F)CCC4)n3)c2=O)cn1 [Example 110, 1-[(1-Ethyl-1-pyrazole-4-yl)methyl]-3-[6={[(1-fluorocyclobutyl)methyl]amino}-4-(trifluoromethyl)pyridine-2-yl]-4-methyl-1,3-dihydro-2H-imidazole-2-one] |
| 105 |  | CCn1cc(Cn2cc(C)n(-c3cc(C(F)(F)F)cc(N4CCOC(F)(F)C4)n3)c2=O)cn1 [Example 111, 3-[6-(2,2-difluoromorpholin-4-yl)-4-(trifluoromethyl)pyridin-2-yl]-1-[(1-ethyl-1H-pyrazol-4-yl)methyl]-4-methyl-1,3-dihydro-2H-imidazol-2-one] |
| 100 |  | CCn1cc(Cn2ccn(-c3nc(N4CCOC(C)(C)C4)cc(C(F)(F)F)c3F)c2=O)cn1 [Example 112, 1-[6-(2,2-dimethylmorpholin-4-yl)-3-fluoro-4-(trifluoromethyl)pyridin-2-yl]-3-[(1-ethyl-1H-pyrazol-4-yl)methyl]-1,3-dihydro-2H-imidazol-2-one] |
| 103 |  | CCn1cc(Cn2ccn(-c3cc(N(C)C4CCOCC4)cc(C(C)(C)O)c3F)c2=O)cn1 [Example 113, 1-[(1-ethyl-1H-pyrazol-4-yl)methyl]-3-{2-fluoro-3-(2-hydroxypropan-2-yl)-5-[methyl(oxan-4-yl)amino]phenyl}-1,3-dihydro-2H-imidazol-2-one] |
| 103 |  | CCn1cc(Cn2c(C)c(C)n(-c3cc(C(F)(F)F)cc(OC[C@H]4CCCO4)n3)c2=O)cn1 [Example 114, 1-[(1-ethyl-1H-pyrazol-4-yl)methyl]-4,5-dimethyl-3-[6-{[(2R)-oxolan-2-yl]methoxy}-4-(trifluoromethyl)pyridin-2-yl]-1,3-dihydro-2H-imidazol-2-one] |
| 103 |  | CCn1cc(Cn2c(C)c(C)n(-c3cc(C(F)(F)F)cc(OC[C@@H]4CCCO4)n3)c2=O)cn1 [Example 115, 1-[(1-ethyl-1H-pyrazol-4-yl)methyl]-4,5-dimethyl-3-[6-{[(2S)-oxolan-2-yl]methoxy}-4-(trifluoromethyl)pyridin-2-yl]-1,3-dihydro-2H-imidazol-2-one] |
| 101 |  | CCn1cc(Cn2ccn(-c3cc(OC4CCOCC4)cc(C(F)(F)F)c3F)c2=O)cn1 [Example 116, 1-[(1-ethyl-1H-pyrazol-4-yl)methyl]-3-{2-fluoro-5-[(oxan-4-yl)oxy]-3-(trifluoromethyl)phenyl}-1,3-dihydro-2H-imidazol-2-one] |
| 100 |  | CCn1cc(Cn2c(C)cn(-c3cc(OC4CCOCC4)cc(C(F)(F)F)c3F)c2=O)cn1 [Example 117, 3-[(1-ethyl-1H-pyrazol-4-yl)methyl]-1-{2-fluoro-5-[(oxan-4-yl)oxy]-3-(trifluoromethyl)phenyl}-4-methyl-1,3-dihydro-2H-imidazol-2-one] |
| 100 |  | CCn1cc(Cn2ccn(-c3cc(OC[C@@H]4CCCO4)cc(C(F)(F)F)c3F)c2=O)cn1 [Example 118, 1-[(1-ethyl-1H-pyrazol-4-yl)methyl]-3-[2-fluoro-5-{[(2S)-oxolan-2-yl]methoxy}-3-(trifluoromethyl)phenyl]-1,3-dihydro-2H-imidazol-2-one] |
